Test results reported in patent US20090047246A1, “NOVEL INHIBITORS OF HEPATITIS C VIRUS REPLICATION” (InterMune, Inc., priority 2007, published 2009).

What follows are molecules tested against T1, HCV NS3 helicase (Hepatitis C virus genotype 1b, UniProt P26663) (assay: HCV Helicase Prompt FRET Assay (Example A)). Conditions: HCV NS3 helicase; tables do not say whether Example A or Example B assay; read-out: IC50 Activity.
T1 construct: full-length NS3 (1-631), purified at Array BioPharma
T1 sequence (P26663 1027-1657): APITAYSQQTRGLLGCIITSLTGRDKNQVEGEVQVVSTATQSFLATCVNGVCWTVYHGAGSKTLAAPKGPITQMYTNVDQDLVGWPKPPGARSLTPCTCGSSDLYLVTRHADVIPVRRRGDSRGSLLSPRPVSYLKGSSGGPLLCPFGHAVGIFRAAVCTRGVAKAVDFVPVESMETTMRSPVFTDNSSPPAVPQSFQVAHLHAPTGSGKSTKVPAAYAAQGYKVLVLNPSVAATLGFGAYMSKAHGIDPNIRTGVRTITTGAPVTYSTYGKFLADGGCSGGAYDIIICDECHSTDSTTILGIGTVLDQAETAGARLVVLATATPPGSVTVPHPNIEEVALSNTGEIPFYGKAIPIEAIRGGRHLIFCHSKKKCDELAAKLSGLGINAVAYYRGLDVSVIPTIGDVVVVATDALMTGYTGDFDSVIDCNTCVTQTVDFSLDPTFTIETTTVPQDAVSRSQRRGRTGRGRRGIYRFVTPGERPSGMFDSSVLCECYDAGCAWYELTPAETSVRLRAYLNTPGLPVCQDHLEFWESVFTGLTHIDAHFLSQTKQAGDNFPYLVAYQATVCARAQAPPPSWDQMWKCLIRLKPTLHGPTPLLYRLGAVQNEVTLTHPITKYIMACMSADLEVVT
Format: biochemical
Outline: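 Full-length NS3 (1-631), 5 or 6 nM, preincubated 5 min with compound, then unwinds 50 nM FAM/BHQ-1 duplex substrate with 250 nM capture strand and 300 μM ATP in 25 mM MOPS pH 7.0, 1.5 mM MgCl2, 0.005% Triton X-100, 2% DMSO. Fluorescence (485/535 nm) followed ~30 min at room temperature; IC50 from initial rates by 4- or 5-parameter fit.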
`O=C(O)Cc1cn(Cc2ccc(Oc3cccc(F)c3F)cc2)c2ccccc12` [Example 584] was tested, and the IC50 was under 10 µM. Work on `O=C(O)Cc1cn(Cc2ccc(Oc3ccc(F)cc3F)cc2)c2ccccc12` [Example 585] yielded an IC50 of under 10 µM. For `O=C(O)Cc1cn(Cc2ccc(Oc3cc(F)ccc3F)cc2)c2ccccc12` [Example 586], the IC50 was under 10 µM. With `O=C(O)Cc1cn(Cc2ccc(Oc3c(F)cccc3F)cc2)c2ccccc12` [Example 587] the IC50 was under 10 µM. Work on `O=C(O)Cc1cn(Cc2ccc(Oc3cccc(Cl)c3Cl)cc2)c2ccccc12` [Example 588] yielded an IC50 of under 10 µM. `O=C(O)Cc1cn(Cc2ccc(Oc3ccc(Cl)cc3Cl)cc2)c2ccccc12` [Example 589] was tested, and the IC50 was under 10 µM. Molecule `O=C(O)Cc1cn(Cc2ccc(Oc3cc(Cl)ccc3Cl)cc2)c2ccccc12` [Example 590] has an IC50 of under 10 µM. `CCOC(=O)Cc1cn(Cc2ccc(Oc3cccc(Cl)c3)cc2)c2cc(-c3cccc(OC(C)=O)c3)ccc12` [Example 601] was tested, and the IC50 was over 50 µM. Molecule `CCOC(=O)Cc1cn(Cc2ccc(Oc3cccc(OC)c3)cc2)c2cc(-c3cccc(OC(C)=O)c3)ccc12` [Example 602] has an IC50 of 10 to 50 µM. With `CCOC(=O)Cc1cn(Cc2ccc(Oc3cccc(F)c3)cc2)c2cc(-c3cccc(OC(C)=O)c3)ccc12` [Example 603] the IC50 was over 50 µM. With `CCOC(=O)Cc1cn(Cc2ccc(Oc3cccc(OCC)c3)cc2)c2cc(-c3cccc(OC(C)=O)c3)ccc12` [Example 604] the IC50 was over 50 µM. `CCOC(=O)Cc1cn(Cc2ccc(Oc3ccc(Cl)cc3)cc2)c2cc(-c3cccc(OC(C)=O)c3)ccc12` [Example 605] was tested, and the IC50 was over 50 µM. `CCOC(=O)Cc1cn(Cc2ccc(Oc3ccc(C(F)(F)F)cc3)cc2)c2cc(-c3cccc(OC(C)=O)c3)ccc12` [Example 606] showed an IC50 of 10 to 50 µM.

Same assay, conditions: Table 21, compounds made using Scheme 28; read-out: IC50 Activity
With `COc1cccc(N(C)c2ccc(Cn3cc(CC(=O)O)c4ccccc43)cc2)c1` [Example 563] the IC50 was under 10 µM. `COc1ccc(N(C)c2ccc(Cn3cc(CC(=O)O)c4ccccc43)cc2)cc1` [Example 564] was tested, and the IC50 was under 10 µM. Work on `CN(c1ccc(Cn2cc(CC(=O)O)c3ccccc32)cc1)c1ccccc1C(F)(F)F` [Example 565] yielded an IC50 of under 10 µM. `CN(c1ccc(Cn2cc(CC(=O)O)c3ccccc32)cc1)c1cccc(C(F)(F)F)c1` [Example 566] was tested, and the IC50 was under 10 µM. `CN(c1ccc(Cn2cc(CC(=O)O)c3ccccc32)cc1)c1ccc(C(F)(F)F)cc1` [Example 567] showed an IC50 of under 10 µM. `CN(c1ccc(Cn2cc(CC(=O)O)c3ccccc32)cc1)c1cccc(F)c1F` [Example 568] gave an IC50 of under 10 µM. Work on `CN(c1ccc(Cn2cc(CC(=O)O)c3ccccc32)cc1)c1ccc(F)cc1F` [Example 569] yielded an IC50 of under 10 µM. For `CN(c1ccc(Cn2cc(CC(=O)O)c3ccccc32)cc1)c1cc(F)ccc1F` [Example 570], the IC50 was under 10 µM. Work on `CN(c1ccc(Cn2cc(CC(=O)O)c3ccccc32)cc1)c1c(F)cccc1F` [Example 571] yielded an IC50 of 10 to 50 µM. `CN(c1ccc(Cn2cc(CC(=O)O)c3ccccc32)cc1)c1cccc(Cl)c1Cl` [Example 572] gave an IC50 of under 10 µM. With `CN(c1cccc(Cn2cc(CC(=O)O)c3ccccc32)c1)c1ccc(Cl)cc1Cl` [Example 573] the IC50 was under 10 µM. Molecule `CN(c1ccc(Cn2cc(CC(=O)O)c3ccccc32)cc1)c1cc(Cl)ccc1Cl` [Example 574] has an IC50 of under 10 µM. `CN(c1ccc(Cn2cc(CC(=O)O)c3ccccc32)cc1)c1ccc(Cl)c(Cl)c1` [Example 575] gave an IC50 of under 10 µM. `CN(c1ccc(Cn2cc(CC(=O)O)c3ccccc32)cc1)c1c(Cl)cccc1Cl` [Example 576] showed an IC50 of under 10 µM. `COc1ccc(N(C)c2ccc(Cn3cc(CC(=O)O)c4ccccc43)cc2)c(OC)c1` [Example 577] showed an IC50 of 10 to 50 µM. `COc1ccc(OC)c(N(C)c2ccc(Cn3cc(CC(=O)O)c4ccccc43)cc2)c1` [Example 578] gave an IC50 of under 10 µM. Molecule `COc1ccc(N(C)c2ccc(Cn3cc(CC(=O)O)c4ccccc43)cc2)cc1OC` [Example 579] has an IC50 of 10 to 50 µM. `CN(c1ccc(Cn2cc(CC(=O)O)c3ccccc32)cc1)c1ccc(C(F)(F)F)cc1C(F)(F)F` [Example 580] gave an IC50 of under 10 µM. `CN(c1ccc(Cn2cc(CC(=O)O)c3ccccc32)cc1)c1cc(C(F)(F)F)ccc1C(F)(F)F` [Example 581] gave an IC50 of under 10 µM. For `CN(c1ccc(Cn2cc(CC(=O)O)c3ccccc32)cc1)c1cc(C(F)(F)F)cc(C(F)(F)F)c1` [Example 582], the IC50 was under 10 µM. `CCOC(=O)Cc1cn(Cc2ccc(N(C)c3ccccc3F)cc2)c2ccccc12` [Example 583] showed an IC50 of 10 to 50 µM.

Same assay, conditions: Table 23, compounds made using Scheme 30; read-out: IC50 Activity
`O=C(O)Cc1cn(Cc2ccc(Oc3ccc(C(F)(F)F)cc3C(F)(F)F)cc2)c2ccccc12` [Example 591] gave an IC50 of under 10 µM. With `O=C(O)Cc1cn(Cc2ccc(Oc3c(C(F)(F)F)cccc3C(F)(F)F)cc2)c2ccccc12` [Example 592] the IC50 was 10 to 50 µM. For `O=C(O)Cc1cn(Cc2cccc(Oc3ccc(F)cc3F)c2)c2ccccc12` [Example 593], the IC50 was under 10 µM. `O=C(O)Cc1cn(Cc2cccc(Oc3c(F)cccc3F)c2)c2ccccc12` [Example 594] was tested, and the IC50 was under 10 µM. In the case of `O=C(O)Cc1cn(Cc2cccc(Oc3cccc(Cl)c3Cl)c2)c2ccccc12` [Example 595], the IC50 is reported as under 10 µM. `O=C(O)Cc1cn(Cc2cccc(Oc3ccc(Cl)cc3Cl)c2)c2ccccc12` [Example 596] gave an IC50 of under 10 µM. `O=C(O)Cc1cn(Cc2cccc(Oc3ccc(C(F)(F)F)cc3C(F)(F)F)c2)c2ccccc12` [Example 597] showed an IC50 of under 10 µM. Work on `O=C(O)Cc1cn(Cc2cccc(Oc3cc(Cl)ccc3Cl)c2)c2ccccc12` [Example 599] yielded an IC50 of 10 to 50 µM. `O=C(O)Cc1cn(Cc2cccc(Oc3c(Cl)cccc3Cl)c2)c2ccccc12` [Example 600] gave an IC50 of 10 to 50 µM.

Same assay, conditions: Table 25, compounds made using Scheme 32; read-out: IC50 Activity
`CCOC(=O)Cc1cn(Cc2ccc(Oc3ccc(C(F)(F)F)cc3)cc2)c2cc(-c3cc(N)cc(N)c3)ccc12` [Example 608] was tested, and the IC50 was 10 to 50 µM. `CCOC(=O)Cc1cn(Cc2ccc(Oc3cccc(OCC)c3)cc2)c2cc(-c3cc(N)cc(N)c3)ccc12` [Example 609] was tested, and the IC50 was 10 to 50 µM. Molecule `CCOC(=O)Cc1cn(Cc2ccc(Oc3cccc(OC)c3)cc2)c2cc(-c3cc(N)cc(N)c3)ccc12` [Example 610] has an IC50 of 10 to 50 µM. Work on `CCOC(=O)Cc1cn(Cc2ccc(Oc3cccc(Cl)c3)cc2)c2cc(-c3cc(N)cc(N)c3)ccc12` [Example 612] yielded an IC50 of under 10 µM. With `CCOC(=O)Cc1cn(Cc2ccc(Oc3ccc(Cl)cc3)cc2)c2cc(-c3cc(N)cc(N)c3)ccc12` [Example 613] the IC50 was 10 to 50 µM.

Same assay, conditions: Table 26, compounds made using Scheme 33; read-out: IC50 Activity
With `O=C(O)Cc1cn(Cc2csc3ccc(Cl)cc23)c2cc(-c3ccccc3)ccc12` [Example 614] the IC50 was under 10 µM. In the case of `Nc1ccc(CO)c(-c2ccc3c(CC(=O)O)cn(Cc4csc5ccc(Cl)cc45)c3c2)n1` [Example 615], the IC50 is reported as 10 to 50 µM. In the case of `CCC(=O)Oc1cn(Cc2csc3ccc(Cl)cc23)c2cc(-c3ccccc3)ccc12` [Example 616], the IC50 is reported as over 50 µM.

Same assay, conditions: Table 28, compounds made using Scheme 35; read-out: IC50 Activity
Molecule `CC(C)c1ccc(Cn2cc(CC(=O)O)c3ccc(-c4cc(N)cc(N)c4)cc32)cc1` [Example 619] has an IC50 of under 10 µM.

Same assay, conditions: Table 29, compounds made using Scheme 36; read-out: IC50 Activity
Work on `Nc1ncc(C(=O)O)c(-c2ccc3c(CC(=O)O)cn(Cc4csc5ccc(Cl)cc45)c3c2)n1` [Example 621] yielded an IC50 of over 50 µM.

Same assay, conditions: Table 31, compounds made using Schemes 38-45; read-out: IC50 Activity
For `O=C(O)Cc1cn(Cc2csc3ccc(Cl)cc23)c2cc(-c3cccc(O)c3)ccc12` [Example 625], the IC50 was under 10 µM. `Cc1ccccc1-c1ccc2c(CC(=O)O)cn(Cc3csc4ccc(Cl)cc34)c2c1` [Example 626] showed an IC50 of under 10 µM. In the case of `Cc1ccc(N)cc1-c1ccc2c(CC(=O)O)cn(Cc3csc4ccc(Cl)cc34)c2c1` [Example 627], the IC50 is reported as under 10 µM. For `Cc1c(N)cc(N)cc1-c1ccc2c(CC(=O)O)cn(Cc3csc4ccc(Cl)cc34)c2c1` [Example 628], the IC50 was under 10 µM. In the case of `Nc1cc(-c2ccc3c(CC(=O)O)cn(Cc4csc5ccc(Cl)cc45)c3c2)nc(N)n1` [Example 629], the IC50 is reported as under 10 µM. In the case of `Nc1ccnc(-c2ccc3c(CC(=O)O)cn(Cc4csc5ccc(Cl)cc45)c3c2)n1` [Example 630], the IC50 is reported as under 10 µM. Work on `CCNc1nc(NCC)nc(-c2ccc3c(CC(=O)O)cn(Cc4csc5ccc(Cl)cc45)c3c2)n1` [Example 632] yielded an IC50 of under 10 µM. For `Nc1nc(-c2ccc3c(CC(=O)O)cn(Cc4csc5ccc(Cl)cc45)c3c2)ncc1F` [Example 633], the IC50 was 10 to 50 µM. Molecule `Nc1cc(N)nc(-c2ccc3c(CC(=O)O)cn(Cc4csc5ccc(Cl)cc45)c3c2)n1` [Example 635] has an IC50 of 10 to 50 µM. `Nc1nc(Cl)cc(-c2ccc3c(CC(=O)O)cn(Cc4csc5ccc(Cl)cc45)c3c2)n1` [Example 636] showed an IC50 of under 10 µM. With `Nc1nc(Cl)c(C=O)c(-c2ccc3c(CC(=O)O)cn(Cc4csc5ccc(Cl)cc45)c3c2)n1` [Example 637] the IC50 was under 10 µM. Molecule `Nc1cc(-c2ccc3c(CC(=O)O)cn(Cc4csc5ccc(Cl)cc45)c3c2)cc(N)n1` [Example 638] has an IC50 of 10 to 50 µM. `Nc1nc(-c2ccc3c(CC(=O)O)cn(Cc4csc5ccc(Cl)cc45)c3c2)c2nc[nH]c2n1` [Example 639] was tested, and the IC50 was 10 to 50 µM. `CNc1nc(-c2ccc3c(CC(=O)O)cn(Cc4csc5ccc(Cl)cc45)c3c2)nc2[nH]cnc12` [Example 640] was tested, and the IC50 was under 10 µM. `NC(=O)c1ccc(N)cc1-c1ccc2c(CC(=O)O)cn(Cc3csc4ccc(Cl)cc34)c2c1` [Example 641] showed an IC50 of 10 to 50 µM. `COC(=O)c1ccc(N)cc1-c1ccc2c(CC(=O)O)cn(Cc3csc4ccc(Cl)cc34)c2c1` [Example 642] was tested, and the IC50 was under 10 µM. `CNc1cc(NC)cc(-c2ccc3c(CC(=O)O)cn(Cc4csc5ccc(Cl)cc45)c3c2)c1` [Example 646] was tested, and the IC50 was under 10 µM. `CNc1cc(N)cc(-c2ccc3c(CC(=O)O)cn(Cc4csc5ccc(Cl)cc45)c3c2)c1` [Example 647] was tested, and the IC50 was under 10 µM. `CC(=O)Nc1cc(NC(C)=O)cc(-c2ccc3c(CC(=O)O)cn(Cc4csc5ccc(Cl)cc45)c3c2)c1` [Example 648] gave an IC50 of under 10 µM. `CC(C)Nc1cc(NC(C)C)cc(-c2ccc3c(CC(=O)O)cn(Cc4csc5ccc(Cl)cc45)c3c2)c1` [Example 649] showed an IC50 of under 10 µM.
